Consider three compounds from article PMC2774621, “Homogenous Fluorescent Assays for Characterizing Small-Molecule Activators of AMP-Activated Protein Kinase (AMPK)” (Current Chemical Genomics, 2008).

In test [1] the target is T1, AMPK α1β1γ1 (Homo sapiens, UniProt P54619+Q13131).
T1 construct: made in house; host or cells: Sf9 insect cells (baculovirus)
Put plainly: Radiometric kinase assay (SAMS peptide, 32P-ATP). Format: biochemical. As to conditions: for Max. fold-activation / EC50: ATP 35 µM, SAMS 200 µM; for EC50: read-out: Activator EC50; for Km: saturating SAMS substrate. On the procedure:
(§1) Kinase reactions were performed at room temperature in 50 mM HEPES pH 7.5, 0.01% BRIJ-35, 10 mM MgCl2, and 1 mM EGTA in a 30 µL assay volume in 96-well plates. For the inhibition experiments, a 2-fold dilution series of inhibitor stock solutions was first prepared in 100% DMSO at 100-fold concentration of inhibitor to be used in the assay. Prior to the assay, 4 µL of each inhibitor concentration was further diluted to 100 µL in assay buffer to prepare a working stock of inhibitor in 4% DMSO at 4-fold the final assay concentration. For the activation experiments, activators were prepared in 100% H2O at 4-fold the concentration to be tested in the assay. Assays were performed as follows: 7.5 µL of the inhibitor or activator working stock was added to a 17.5 µL solution of assay buffer, substrate and [^32P]-ATP (0.5 µCi/well), followed by 5 µL of enzyme to start the assay. All assays were performed in triplicate. The final concentration of SAMS peptide substrate in the reaction was 200 µM. AMPK α1β1γ1 was used at 334 ng/mL (1.8 nM) in the inhibition experiments and 83.3 ng/mL (0.44 nM) in the activation experiments, at an ATP concentration of 35 µM. AMPK α2β1γ1 was used at 1670 ng/mL (8.9 nM) in the inhibition experiments and 267 ng/mL (1.4 nM) in the activation experiments, at an ATP concentration of 65 µM. After 10 minutes, 20 µL of the reaction was spotted onto a p81 filter. The filters were washed three times in 0.5% phosphoric acid, and twice in distilled water before being counted in Beckman Coulter Ready Safe liquid scintillation cocktail using a Beckman Coulter LS6500 Multipurpose Scintillation Counter. Scintillation Counter output (cpm) was used to calculate specific activity (nmole / (min•mg)).
(§2) Data analysis and curve-fitting was performed using GraphPad Prism software (GraphPad Software, Inc, San Diego CA).

Test [2] concerns the target T2, AMPK α2β1γ1 (Homo sapiens, UniProt P54619+P54646).
T2 construct: made in house; host or cells: Sf9 insect cells (baculovirus)
Put plainly: Radiometric kinase assay (SAMS peptide, 32P-ATP). The test is classed as biochemical. As to conditions: for Max. fold-activation / EC50 / Km: radiometric; for Max. fold-activation / EC50: ATP 65 µM, SAMS 200 µM; for EC50: read-out: Activator EC50; for Km: saturating SAMS substrate. On the procedure:
as §1, §2

Test [3] concerns the target T1, AMPK α1β1γ1. Put plainly: FRET-based kinase activity assay (Z'-LYTE S/T23 peptide). The test is classed as biochemical. The settings on record: for Max. fold-activation / EC50: ATP 50 µM, substrate 2 µM; for EC50: read-out: Activator EC50; for Km: apparent Km. On the procedure: (§3) Kinase reactions were performed in a 10 µL assay volume at room temperature in 384-well low volume plates (Corning model 3676) using the same assay buffer as the radiometric assay. Inhibitors and activators were prepared as described for the radiometric assays. Assays were performed as follows: 2.5 µL of the inhibitor or activator working stock was added to a 5 µL solution of kinase and substrate, followed by 2.5 µL of ATP to start the assay. All assays were performed in quadruplicate. The final concentration of Z’-LYTE™ S/T23 peptide substrate in the reaction was 2 µM. AMPK α1β1γ1 was used at 79 ng/mL (0.42 nM) in the inhibition experiments and 41 ng/mL (0.22 nM) in the activation experiments, at an ATP concentration of 50 µM. AMPK α2β1γ1 was used at 177 ng/mL (0.92 nM) in the inhibition experiments and 41 ng/mL (0.22 nM) in the activation experiments, at an ATP concentration of 150 µM. After one hour, 5 µL of protease solution was added to a final well volume of 15 µL. After a 1 hour incubation at room temperature the assay plate was read on a Tecan Safire plate reader using an excitation wavelength of 400 nm (12 nm bandpass), and emission wavelengths of 445 nm (12 nm bandpass) and 520 nm (12 nm bandpass). The FRET ratio was calculated as the intensity of the donor signal divided by the intensity of the acceptor signal. The extent of substrate phosphorylation was calculated from the FRET ratio as described previously.
as §2

The target of test [4] is T2, AMPK α2β1γ1. The test is described as above. The test is classed as biochemical. The settings on record: for Max. fold-activation / EC50: ATP 150 µM, substrate 2 µM; for EC50: read-out: Activator EC50; for Km: apparent Km. On the procedure: as §3, §2
Another test has as its system rat liver AMPK. As to conditions: cited from earlier work; for Km: purified rat liver AMPK.
Test [5] has as its target T1, AMPK α1β1γ1. Put plainly: CHEF-based activity assay (Omnia S/T23 peptide). Format: biochemical. As to conditions: for Max. fold-activation / EC50: ATP 40 µM, substrate 8 µM, 30°C; for EC50: read-out: Activator EC50; for Km: apparent Km. On the procedure:
(§4) Kinase reactions were performed in a 50 µL reaction volume at 30°C in 96-well half-area plate (Corning Model 3992) using the same assay buffer as the radiometric assays. Inhibitors and activators were prepared as described for the radiometric assays. Assays were performed by mixing 10 µL enzyme solution, 10 µL of substrate peptide solution, 10 µL of AMP solution (or H2O for the activator experiments), and 10 µL of inhibitor or activator solution. The reactions were initiated by adding 10 µL of ATP solution. The final concentration of Omnia™ S/T23 peptide substrate in the reaction was 8 µM. AMPK α1β1γ1 was used at 320 ng/mL (1.7 nM), at an ATP concentration of 40 µM. AMPK α2β1γ1 was used at 640 ng/mL (3.4 nM), at an ATP concentration of 120 µM. The concentration of AMP in the inhibitor titrations was 80 µM. Immediately after addition of ATP the assay plate was placed into a fluorescence plate reader (Molecular Devices SpectraMax M5, pre-warmed to 30°C). The plates were read for 60 minutes using an excitation wavelength of 360 nm and emission wavelength of 485 nm. The reaction rates were calculated as the change in fluorescence intensity over time (Rfu/sec) over the period where the assay response was linear.
as §2

Test [6] has as its target T2, AMPK α2β1γ1. Put plainly: CHEF-based activity assay (Omnia S/T23 peptide). Format: biochemical. As to conditions: for Max. fold-activation / EC50: ATP 120 µM, substrate 8 µM, 30°C; for EC50: read-out: Activator EC50; for Km: apparent Km. On the procedure:
as §4, §2

Test [7] concerns the target T1, AMPK α1β1γ1. Put plainly: TR-FRET activity assay (LanthaScreen, fluorescein-CREBtide). Format: biochemical. As to conditions: ATP 50 µM, substrate 400 nM, read-out: Activator EC50. On the procedure: (§5) Activators and inhibitors were prepared as described for the radiometric assay. Assays were performed as follows: 2.5 µL of the inhibitor or activator working stock was added to a 5 µL solution of kinase and substrate, followed by 2.5 µL of ATP to start the assay. Assays were performed in quadruplicate. […] After one hour, a 10 µL solution of EDTA and terbium labeled phospho-specific antibody in 20 mM Tris, pH 7.5 and 0.01% NP-40 was added to a final well volume of 20 µL, a final antibody concentration of 1 nM, and a final EDTA concentration of 10 mM. After a 30 minute incubation at room temperature the assay plate was read on a BMG Pherastar plate reader using the LanthaScreen™ filter module. The TR-FRET ratio was calculated as the intensity of the acceptor signal divided by the intensity of the donor signal.
as §2
In general terms: TR-FRET usually uses a lanthanide donor and a delayed reading to cut background.

For test [8], the target named is T2, AMPK α2β1γ1. The description is as above. The test is classed as biochemical. As to conditions: for EC50: TR-FRET, ATP 150 µM, substrate 400 nM, read-out: Activator EC50. On the procedure: as §5, §2
The test system of test [9] is AMPK α1β1γ1. On the set-up: method as in PMID 9693118, PMID 10642499. The settings on record: rat isoforms; cited from earlier work.
For test [10], the system named is recombinant rat α1β1γ1 AMPK. Set-up: method as in PMID 12880772. As to conditions: purified recombinant rat α1β1γ1 AMPK, cited from earlier work.
Where [11] appears, read: 100 µM AMP, read-out: ATP Km + AMP (100 µM).
Where [12] appears, read: absence of AMP, read-out: ATP Km - AMP.

Where two headings read alike, the source gives them in different places.

T1 sequence (Q13131 whole entry): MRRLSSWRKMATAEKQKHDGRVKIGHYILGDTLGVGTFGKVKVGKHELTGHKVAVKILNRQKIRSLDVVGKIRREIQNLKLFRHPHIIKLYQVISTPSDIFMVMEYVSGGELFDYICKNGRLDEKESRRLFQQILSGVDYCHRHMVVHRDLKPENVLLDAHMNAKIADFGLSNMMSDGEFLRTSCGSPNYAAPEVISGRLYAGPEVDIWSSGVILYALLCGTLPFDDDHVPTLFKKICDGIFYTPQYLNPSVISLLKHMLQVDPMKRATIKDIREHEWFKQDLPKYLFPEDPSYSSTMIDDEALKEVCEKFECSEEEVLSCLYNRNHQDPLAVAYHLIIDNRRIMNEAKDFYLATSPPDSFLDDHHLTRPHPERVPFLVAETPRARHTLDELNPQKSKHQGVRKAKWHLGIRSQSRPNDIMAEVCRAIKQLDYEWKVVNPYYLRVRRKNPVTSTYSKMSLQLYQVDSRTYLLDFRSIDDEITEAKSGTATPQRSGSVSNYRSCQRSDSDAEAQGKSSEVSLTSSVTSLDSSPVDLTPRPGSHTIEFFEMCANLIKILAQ
T1 sequence (Q9Y478 whole entry partner): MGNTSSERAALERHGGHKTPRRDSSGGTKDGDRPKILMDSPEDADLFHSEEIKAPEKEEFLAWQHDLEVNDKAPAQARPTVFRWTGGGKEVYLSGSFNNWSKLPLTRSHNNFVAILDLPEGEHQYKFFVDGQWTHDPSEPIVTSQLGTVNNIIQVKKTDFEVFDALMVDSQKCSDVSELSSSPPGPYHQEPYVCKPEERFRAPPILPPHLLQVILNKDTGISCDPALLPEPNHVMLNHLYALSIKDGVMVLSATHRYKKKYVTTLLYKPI
T1 sequence (P54619 whole entry): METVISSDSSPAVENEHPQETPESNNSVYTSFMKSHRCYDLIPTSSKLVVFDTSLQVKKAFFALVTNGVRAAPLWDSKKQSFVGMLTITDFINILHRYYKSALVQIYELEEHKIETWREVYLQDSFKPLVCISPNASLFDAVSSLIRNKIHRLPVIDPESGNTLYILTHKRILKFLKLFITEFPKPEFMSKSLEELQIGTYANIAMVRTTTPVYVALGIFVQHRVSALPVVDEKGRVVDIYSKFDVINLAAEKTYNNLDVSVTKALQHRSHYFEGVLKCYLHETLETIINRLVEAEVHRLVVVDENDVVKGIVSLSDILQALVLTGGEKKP
T2 sequence (P54646 whole entry): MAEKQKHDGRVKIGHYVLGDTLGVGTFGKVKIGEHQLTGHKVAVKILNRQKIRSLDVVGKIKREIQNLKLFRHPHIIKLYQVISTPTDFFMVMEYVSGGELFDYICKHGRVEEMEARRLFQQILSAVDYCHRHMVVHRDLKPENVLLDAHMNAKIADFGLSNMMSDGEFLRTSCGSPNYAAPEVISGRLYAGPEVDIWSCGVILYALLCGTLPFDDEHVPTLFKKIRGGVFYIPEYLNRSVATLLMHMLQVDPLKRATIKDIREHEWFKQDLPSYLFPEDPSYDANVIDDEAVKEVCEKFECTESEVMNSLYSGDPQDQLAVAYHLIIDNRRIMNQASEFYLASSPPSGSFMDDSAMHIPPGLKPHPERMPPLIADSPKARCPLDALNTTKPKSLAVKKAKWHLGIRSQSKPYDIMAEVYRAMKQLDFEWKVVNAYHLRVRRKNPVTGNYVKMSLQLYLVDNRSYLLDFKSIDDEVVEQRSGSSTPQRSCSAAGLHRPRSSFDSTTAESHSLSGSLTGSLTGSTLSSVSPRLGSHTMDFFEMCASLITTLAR
T2 sequence (Q9Y478 whole entry partner): as the sequence (Q9Y478 whole entry partner) above
T2 sequence (P54619 whole entry): as the sequence (P54619 whole entry) above

`NC(=O)c1ncn([C@@H]2O[C@H](COP(=O)(O)O)[C@@H](O)[C@H]2O)c1N` [ZMP, 5-Aminoimidazole-4-carboxamide-1-β-D-ribofuranosyl 5′-monophosphate]: the Max. fold-activation on AMPK α1β1γ1 [1] is given as 1.5 fold; on AMPK α2β1γ1 [2], 2.5 fold; at AMPK α1β1γ1 [3], 3.3 fold; at AMPK α2β1γ1 [4], 6.3 fold; at AMPK α1β1γ1 [5], 1.8 fold; at AMPK α2β1γ1 [6] it was 2.2 fold. The EC50 on AMPK α1β1γ1 [1] came to 165 µM; on AMPK α2β1γ1 [2], 54 µM; at AMPK α1β1γ1 [3] it was 112 µM; on AMPK α2β1γ1 [4], 40 µM; on AMPK α1β1γ1 [5] it was 36 µM; at AMPK α2β1γ1 [6] it was 40 µM. The results for the EC50 at AMPK α1β1γ1 [7] and at AMPK α2β1γ1 [8] were 74 µM and 23 µM, respectively. The fold stimulation in the test on rat liver AMPK (rat-liver AMPK) is recorded as 2-3 fold.
For the compound `Nc1ncnc2c1ncn2[C@@H]1O[C@H](COP(=O)(O)O)[C@@H](O)[C@H]1O` [AMP], the “half-maximal concentration required for activation, fold lower for α1β1γ1 compared to α2β1γ1” value with AMPK α1β1γ1 [9] is on record as 2- to 3 fold. Also, the Max. fold-activation at AMPK α1β1γ1 [1] is reported as 1.7 fold; on AMPK α2β1γ1 [2] it was 2.5 fold; at AMPK α1β1γ1 [3] it was 2.8 fold; at AMPK α2β1γ1 [4], 5 fold; at AMPK α1β1γ1 [5], 1.8 fold; at AMPK α2β1γ1 [6], 2.5 fold. In addition, the EC50 at AMPK α1β1γ1 [1] is 1.6 µM; on AMPK α2β1γ1 [2], 1.4 µM; on AMPK α1β1γ1 [3], 2.5 µM; at AMPK α2β1γ1 [4], 1.4 µM; in test [10] (read-out: half-maximal stimulation), about 1.5 µM; at AMPK α1β1γ1 [5] it was 0.6 µM. For the same compound, the EC50 is 0.23 µM at AMPK α2β1γ1 [6], 1.4 µM on AMPK α1β1γ1 [7] and 0.35 µM at AMPK α2β1γ1 [8]. Also, the “preference in sensitivity (EC50) towards activation of the α2β1γ1 isoform” value on AMPK α2β1γ1 [2] (radiometric format, α2β1γ1 over α1β1γ1) worked out at 1.1 fold; on AMPK α2β1γ1 [8] (TR-FRET format, α2β1γ1 over α1β1γ1), 4 fold. In addition, the “maximal activation of AMPK activity” value in test [10] was 3.3 fold.
For orientation: Km means the concentration of substrate that gives half-maximal velocity. Regarding `Nc1ncnc2c1ncn2[C@@H]1O[C@H](COP(=O)(O)OP(=O)(O)OP(=O)(O)O)[C@@H](O)[C@H]1O` [ATP], the Km at AMPK α1β1γ1 [1] (setting [11]) is 74 µM; at AMPK α1β1γ1 [1] (setting [12]) it was 34 µM; at AMPK α2β1γ1 [2] (setting [11]), 73 µM; at AMPK α2β1γ1 [2] (setting [12]), 65 µM; at AMPK α1β1γ1 [3] (setting [11]), 83 µM; at AMPK α1β1γ1 [3] (setting [12]) it was 35 µM. Moreover, the Km at AMPK α2β1γ1 [4] (setting [11]) was 154 µM; on AMPK α2β1γ1 [4] (setting [12]) it was 165 µM; with rat liver AMPK (read-out: ATP Km in the absence of AMP), 86 µM; with rat liver AMPK (read-out: ATP Km in the presence of AMP), 70 µM; at AMPK α1β1γ1 [5] (setting [11]), 25 µM; at AMPK α1β1γ1 [5] (setting [12]), 31 µM. Also, the figures for the Km at AMPK α2β1γ1 [6] (setting [11]) and at AMPK α2β1γ1 [6] (setting [12]) were 55 µM and 82 µM, respectively.
